These results are taken from PubChem BioAssay (NCI).

Among the test systems are 786-0 renal; A498 renal; HCC-2998 colon; HCT-116 colon; HL-60(TB) leukemia; HOP-62 NSCLC; HOP-92 NSCLC; PC-3 prostate; SK-MEL-2 melanoma; UACC-257 melanoma.
Holding throughout (assay): NCI tumour cell line growth inhibition, 48 h

The structures appear in SMILES notation.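 Each compound was tested at five concentrations against cells in 96-well plates for 48 hours. Definition used: TGI = concentration required for complete inhibition of growth.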 Where only a bound is given, the exact number is not on record here.

For `O=C(O)c1nc(-c2ccccc2)ncc1-c1nnnn1-c1ccccc1`, the TGI in the experiment with 786-0 renal, in the experiment with A498 renal, with HCC-2998 colon, with HCT-116 colon, with HL-60(TB) leukemia and with HOP-62 NSCLC was above 100 µM in each case. Also, the TGI in the experiment with HOP-92 NSCLC, in the experiment with PC-3 prostate, in the experiment with SK-MEL-2 melanoma and in the experiment with UACC-257 melanoma was above 100 µM in each case.
In the case of `COc1cc(C2c3cc4c(cc3OC(N3CCCC3)C2C)OCO4)cc(OC)c1O` (stereo not given), the TGI was 59.5 µM in the experiment on 786-0 renal; 56.9 µM in the experiment with A498 renal; above 94.3 µM with HCC-2998 colon; above 100 µM in the experiment on HCT-116 colon; above 92.7 µM with HL-60(TB) leukemia; 56.7 µM in the experiment on HOP-62 NSCLC. Besides, the TGI was above 78.5 µM in the experiment with HOP-92 NSCLC, above 80.6 µM with PC-3 prostate, above 85.9 µM in the experiment with SK-MEL-2 melanoma and above 100 µM with UACC-257 melanoma.
Consider `COc1cc(/C=C2\CCC(C)C3C2=NN(C(C)=O)C3c2cc(OC)c(OC)c(OC)c2)cc(OC)c1OC` (stereo not given), for which the TGI with 786-0 renal, in the experiment on A498 renal, in the experiment with HCC-2998 colon, in the experiment on HCT-116 colon, in the experiment with HL-60(TB) leukemia and with HOP-62 NSCLC was above 100 µM in each case. For the same molecule, the TGI is above 100 µM in the experiment on HOP-92 NSCLC, above 100 µM in the experiment with PC-3 prostate, above 42.4 µM with SK-MEL-2 melanoma and above 100 µM in the experiment with UACC-257 melanoma.
For the molecule `CC1=C(C#N)C(C#N)(C#N)C(NN(C)C)C1` (stereo not given), the TGI with 786-0 renal is 25.6 µM; in the experiment with A498 renal, 43 µM; with HCC-2998 colon it was 32.1 µM; with HCT-116 colon, 29.2 µM; in the experiment on HL-60(TB) leukemia, above 100 µM; in the experiment on HOP-62 NSCLC, 30.4 µM. Besides, the TGI came to 30.8 µM in the experiment on HOP-92 NSCLC, 46.6 µM in the experiment with PC-3 prostate, 39.5 µM with SK-MEL-2 melanoma and 26.4 µM in the experiment on UACC-257 melanoma.
Regarding `CN1C(=O)N/C(=C\c2ccc(S(=O)(=O)NN)cc2)C1=O`, the TGI with 786-0 renal, in the experiment with A498 renal, in the experiment with HCC-2998 colon, with HCT-116 colon, in the experiment on HL-60(TB) leukemia and with HOP-62 NSCLC was above 100 µM throughout. Also, the TGI with HOP-92 NSCLC, with PC-3 prostate, in the experiment with SK-MEL-2 melanoma and in the experiment on UACC-257 melanoma was above 100 µM in each case.
For the molecule `O=[N+]([O-])c1ccc(Cl)c(C=NC23CC4CC(CC(C4)C2)C3)c1`, the TGI was above 10 µM with 786-0 renal; above 10 µM with A498 renal; above 10 µM in the experiment with HCC-2998 colon; above 10 µM with HCT-116 colon; 4.46 µM in the experiment with HL-60(TB) leukemia; above 10 µM in the experiment with HOP-62 NSCLC. In addition, the TGI in the experiment on HOP-92 NSCLC, in the experiment with PC-3 prostate, in the experiment on SK-MEL-2 melanoma and in the experiment on UACC-257 melanoma was above 10 µM in each case.
Turning to `CC1(CCCO)CCCCCC(C)(CCCO)C1=O` (stereo not given), the TGI in the experiment with 786-0 renal, in the experiment with A498 renal, in the experiment on HCC-2998 colon, with HCT-116 colon, in the experiment with HL-60(TB) leukemia and in the experiment on HOP-62 NSCLC was above 100 µM each time. The TGI in the experiment with HOP-92 NSCLC, in the experiment with PC-3 prostate, in the experiment with SK-MEL-2 melanoma and in the experiment with UACC-257 melanoma was above 100 µM in each case.
Regarding `CCC(=O)NC(Nc1cccc(F)c1C)(C(F)(F)F)C(F)(F)F`, the TGI with 786-0 renal, in the experiment on A498 renal, in the experiment on HCC-2998 colon, with HCT-116 colon, in the experiment with HL-60(TB) leukemia and in the experiment with HOP-62 NSCLC was above 100 µM throughout. Besides, the TGI with HOP-92 NSCLC, with PC-3 prostate, in the experiment with SK-MEL-2 melanoma and with UACC-257 melanoma was above 100 µM throughout.
As to `CCCCCN=Cc1c(O)c(O)c(C(C)C)c2cc(C)c(-c3c(C)cc4c(C(C)C)c(O)c(O)c(C=NCCCCC)c4c3O)c(O)c12`, the TGI in the experiment with 786-0 renal is above 100 µM; with A498 renal, above 100 µM; in the experiment with HCC-2998 colon it was 35.9 µM; in the experiment with HCT-116 colon, above 100 µM; with HL-60(TB) leukemia it was 22.2 µM; with HOP-62 NSCLC it was above 100 µM. Moreover, the TGI was 14.6 µM with HOP-92 NSCLC, 41.1 µM in the experiment on PC-3 prostate, above 100 µM in the experiment on SK-MEL-2 melanoma and 46.2 µM with UACC-257 melanoma.
Regarding `NS(=O)(=O)c1nn2c(Br)c(-c3ccccc3)nc2s1`, the TGI is 9.34 µM in the experiment on 786-0 renal; 31 µM with A498 renal; 16.7 µM with HCC-2998 colon; 7.3 µM in the experiment on HCT-116 colon; 36.4 µM in the experiment with HL-60(TB) leukemia; 29.5 µM in the experiment with HOP-62 NSCLC. The TGI amounted to 22.4 µM in the experiment with HOP-92 NSCLC, 18.5 µM in the experiment on PC-3 prostate, 16.9 µM with SK-MEL-2 melanoma and 15.5 µM in the experiment on UACC-257 melanoma.
Turning to `COc1ccc(/C=C(/C(=O)c2ccc(Cl)cc2)N2C=CC=CC2=C(C#N)C#N)cc1OC`, the TGI in the experiment on 786-0 renal turned out to be 5.29 µM; in the experiment on A498 renal it was 30.5 µM; in the experiment on HCC-2998 colon, 4.2 µM; with HCT-116 colon, 5.41 µM; in the experiment with HL-60(TB) leukemia, 7.79 µM; in the experiment with HOP-62 NSCLC it was 51.1 µM. Moreover, the TGI in the experiment on HOP-92 NSCLC was 13.4 µM; in the experiment with PC-3 prostate, 12.9 µM; in the experiment with SK-MEL-2 melanoma, 29.7 µM; with UACC-257 melanoma, 17.2 µM.
As for `Cc1cccc(-c2nc3ccc([N+](=O)[O-])cc3c(=O)o2)c1`, the TGI in the experiment on 786-0 renal, with A498 renal, in the experiment with HCC-2998 colon, with HCT-116 colon, in the experiment on HL-60(TB) leukemia and in the experiment on HOP-62 NSCLC was above 100 µM throughout. Moreover, the TGI is 93 µM with HOP-92 NSCLC, above 100 µM in the experiment on PC-3 prostate, above 100 µM in the experiment with SK-MEL-2 melanoma and above 100 µM with UACC-257 melanoma.
Take `CCc1nc(N)nc(N)c1-c1ccc(Cl)c(Cl)c1`: the TGI with 786-0 renal, with A498 renal, in the experiment with HCC-2998 colon, with HCT-116 colon, in the experiment with HL-60(TB) leukemia and in the experiment on HOP-62 NSCLC was above 100 µM in each case. The TGI in the experiment on HOP-92 NSCLC, in the experiment with PC-3 prostate, in the experiment on SK-MEL-2 melanoma and in the experiment with UACC-257 melanoma was above 100 µM each time.
